Assay results: paper PMC10800023 (Human Molecular Genetics, 2023)
Values belong to the compound of their own block, whether it stands above or below them.

Key:
C57BL/6 mice = assay: RT-qPCR of brain mRNA in WT mice (Study 3); conditions: daily for 35 days, prednisolone 15 mg/kg or vamorolone 45 mg/kg
Experimental: RNA concentration was measured by using Cytation 5 (BioTek).

[1] = Pharmacokinetics and biodistribution in C57BL/10 mice
MDCK cells = assay: MDCK control cell permeability (not transfected with human P-gp); conditions: 1 μM
Experimental: (§1) To measure transport by P-gp, Madin-Darby canine kidney (MDCK) cells that had been transfected with the human P-gp (MDR1) gene were plated in a Transwell plate and cultured until polarized. MDCK cells that are not transfected with human P-gp were used as a control. Compounds were added to either the apical or the basolateral side of the cells, and transport across the membrane was measured.
(§2) Testing for permeability and MDR1 substrate assessment was done in MDCK cells transfected to overexpress human MDR1 gene that encodes efflux transporter protein (P-gp). […] Briefly, cells were maintained in Dulbecco’s modified Eagle medium (DMEM) with 10% fetal bovine serum and 1% penicillin/streptomycin in a humidified incubator at 37°C with 5% CO2. The study was performed by Absorption Systems (now Pharmaron; Exton, PA). The MDR1-MDCK and MDCK control cell lines were seeded into 12-well plates for 7 days. Integrity of monolayer tight junctions was monitored preincubation by transepithelial electrical resistance (TEER) measurement. […] The samples were withdrawn at t = 0 and 60 min from the receiver and donor compartments. Compound levels were measured by LC/MS–MS. Additionally, post-assay, cell monolayer integrity was checked with Lucifer Yellow permeability measurement. Transport assay low- and high-permeability control compounds were run in parallel for assay validation. Papp values were calculated considering compound concentrations across the monolayer and cell surface area. Efflux ratios were calculated based on Papp B > A over Papp A > B. The difference between the MDR1-MDCK and the MDCK cell efflux ratios was also calculated. […] Compounds were classified by Absorption Systems/Pharmaron as follows: […]

in vivo [2] = conditions: DBA/2 J, mouse, plasma, po
Experimental: (§3) The brain-to-plasma ratio was then calculated using the area under the curve (AUC) for brain exposure and the AUC for plasma exposure.

in vivo [3] = conditions: C57BL/10, mouse, oral; for Kp: brain/plasma; for AUC / Cmax: plasma
[4] = cited from earlier work
[5] = Pharmacokinetics and brain/plasma biodistribution in WT DBA/2 J mice
Experimental: as §3

human P-gp (MDR1) = assay: MDR1-MDCK permeability / P-gp efflux assay; conditions: for Differences between ratios: MDR1-MDCK minus MDCK efflux ratio; for brain penetration classification: 1 and 10 μM, from Papp (A-to-B) and efflux ratio
Experimental: as §1, §2

B10-mdx mice = assay: Four-limb grip strength (Study 2); format: in vivo, mouse; conditions: 4 weeks of treatment, not complete, not dose dependent
Experimental: After 4 weeks of treatment, muscle strength was evaluated using a grip strength meter.
Study 2: The goal of the second study was to evaluate corticosteroid side effects and efficacy in a longer study (4 months). After 28 days of dosing, mice were tested for depression-like behavior using a measure of corticosteroid-induced depression (FST followed by TST). Muscle function was tested via grip strength. Tests for depression and for grip-strength were done in a blinded manner. After 4 months, mice were euthanized, and tissues were collected. Bone from whole left leg was collected for micro-CT analysis. The number of animals per group was as follows: WT, n = 16; B10-mdx, n = 15; corticosteroid-treated groups, n = 8–10.
A four-limb grip strength meter from Bioseb was used to determine the maximal peak force (g) developed by the mouse when the examiner tried to pull it out of a specially designed grid for mice (Bioseb, BIO-GS3 & BIO-GRIPGS). The examiner was blinded, and a total of 5 measurements were applied to each mouse, 1–2 min between measurements. The average of the 5 values was used for subsequent calculations.

[6] = DBA/2 J, mouse, in vivo
Experimental: as §3

[7] = Published PK data in patients; conditions: in vivo, oral, human, 0.75 mg/kg, extrapolated assuming linear increase from the lower dose
Description: ^a Conklin […] JM, Hoffman EP, Jusko WJ, Mavroudis PD, Schwartz BD, […] LJ, Smith EC, Mah JK, Guglieri M, Nevo Y, Kuntz N, McDonald CM, Tulinius M, Ryan MM, Webster R, Castro D, Finkel RS, Smith AL, Morgenroth […], Jaros M, Shale […] JM, […], Ward […], Cornish MR, Clemens PR. […] Epub 2018 Sep 13. PMID: 30219580; PMCID: PMC6218284. […] Bashar T, Apu […]. […] Dose Response. 2018 Jul 25;16(3):1559325818783932. doi: 10.1177/1559325818783932. PMID: 30083083; PMCID: PMC6073839. ^c Assumed linear increase in AUC and Cmax from 0.25 to 0.75 mg/kg. This may be an overestimate. However, there is support for linearity in Al-Habet S, Rogers HJ. Pharmacokinetics of intravenous and oral prednisolone. Br J Clin Pharmacol. 1980 Nov;10(5):503-8. doi: 10.1111/j.1365-2125.1980.tb01796.x. PMID: 7437263; PMCID: PMC1430141. ^d https://www.accessdata.fda.gov/drugsatfda_docs/nda/2017/208684,208685[…]

[8] = 30 mg/kg oral gavage, DBA/2 J mice

Brain AUC ([1]; 5 mg/kg): 1418 hr∙ng/g of tissue | Brain Cmax ([1]; 5 mg/kg): 443 ng/g of tissue | Brain/plasma ratio based on Cmax ([1]; 5 mg/kg): 0.54 | Brain AUC ([1]; 30 mg/kg): 15538 hr∙ng/g of tissue | Brain Cmax ([1]; 30 mg/kg): 4402 ng/g of tissue | Apical to Basolateral MDCK (MDCK cells): 33.4 10 ^ −6 cm/s | AUC (in vivo [2]; 15 mg/kg): 9350 ng·h/mL | Cmax (in vivo [2]; 15 mg/kg): 1980 ng/mL | AUC (in vivo [2]; 30 mg/kg): 26600 ng·h/mL | Cmax (in vivo [2]; 30 mg/kg): 2700 ng/mL | AUC (in vivo [2]; 45 mg/kg): 34100 ng·h/mL | Cmax (in vivo [2]; 45 mg/kg): 3470 ng/mL | Kp (in vivo [3]; 5 mg/kg): 0.5 | Kp (in vivo [3]; 30 mg/kg): 0.46 | AUC (in vivo [3]; 5 mg/kg): 2850 ng·h/mL | Cmax (in vivo [3]; 5 mg/kg): 818 ng/mL | AUC (in vivo [3]; 30 mg/kg): 33900 ng·h/mL | Cmax (in vivo [3]; 30 mg/kg): 8790 ng/mL | Brain AUC [5, 8]: 8070 h∙ng/g of tissue | Brain Cmax [5, 8]: 1825 ng/g of tissue | Brain/plasma ratio based on AUC [5, 8]: ~0.30 | Brain/plasma ratio based on Cmax [5, 8]: ~0.68 | fold higher exposure in the mouse (based on Cmax) than human clinical exposure ([5]; 15, 30, and 45 mg/kg in mouse vs 6 mg/kg/day in human): 2–4 fold | Cmax ([5]; mouse (DBA), 30 mg/kg): 2700 ng/mL | Differences between ratios (human P-gp (MDR1); 1 μM): 6 | Apical to Basolateral MDR1-MDCK (human P-gp (MDR1); 10 μM): 8.73 10 ^ −6 cm/s | Differences between ratios (human P-gp (MDR1); 10 μM): 6 | brain penetration classification (human P-gp (MDR1)): moderate | Papp A→B at 60 min, 1 μM (human P-gp (MDR1); dog, MDCK-MDR1, pH 7.4): 7.99 ×10⁻⁶ cm/s | Papp B→A at 60 min, 1 μM (human P-gp (MDR1); dog, MDCK-MDR1, pH 7.4): 54.7 ×10⁻⁶ cm/s | Papp B→A at 60 min, 10 μM (human P-gp (MDR1); dog, MDCK-MDR1, pH 7.4): 56.1 ×10⁻⁶ cm/s
SMILES: C[C@@H]1C[C@H]2[C@@H]3CCC4=CC(=O)C=C[C@]4(C)C3=CC[C@]2(C)[C@@]1(O)C(=O)CO [Vamorolone]
Ddrd4 mRNA levels in the CNS (C57BL/6 mice): increased | Fkbp5 mRNA levels in the CNS (C57BL/6 mice): increased | reduction of serum osteocalcin levels ([4]; Phase 2A, subjects with DMD, 6 mg/kg/day, 14 days of dosing): ~ 33% | reduction of osteocalcin levels ([4]; Phase 2b 24-week study in DMD boys, 6 mg/kg): 0.17%

predicted AUC in mice [6]: 446 ng·h/mL | predicted Cmax in mice [6]: 267.5 ng/mL | Basolateral to Apical MDR1-MDCK (human P-gp (MDR1); 1 μM): 62.60 10 ^ −6 cm/s | Differences between ratios (human P-gp (MDR1); 1 μM): 59 | Apical to Basolateral MDR1-MDCK (human P-gp (MDR1); 10 μM): 1.07 10 ^ −6 cm/s | Differences between ratios (human P-gp (MDR1); 10 μM): 57 | brain penetration classification (human P-gp (MDR1)): low | Papp A→B at 60 min, 1 μM (human P-gp (MDR1); dog, MDCK-MDR1, pH 7.4): 1.04 ×10⁻⁶ cm/s | Papp B→A at 60 min, 10 μM (human P-gp (MDR1); dog, MDCK-MDR1, pH 7.4): 62.6 ×10⁻⁶ cm/s
SMILES: CC(=O)OCC(=O)[C@@]12N=C(C)O[C@@H]1C[C@H]1[C@@H]3CCC4=CC(=O)C=C[C@]4(C)[C@H]3[C@@H](O)C[C@@]12C [Deflazacort]
grip strength (B10-mdx mice): showed some protection from loss of grip strength

Cmax [7]: ~705 ng/mL | AUC ([7]; read-out: AUC (Day 1)): ~7070 ng·h/mL
SMILES: C[C@]12C=CC(=O)C=C1CC[C@@H]1[C@@H]2[C@@H](O)C[C@@]2(C)[C@H]1CC[C@]2(O)C(=O)CO [Prednisolone]
